Measurements: patent US20100233231A1, “USE OF CRYOGENIC PROCESSING TO OBTAIN A SUBSTANTIALLY-THICKENED FORMULATION” (priority 2009, published 2010)

Assay: Consistency and homogeneity of the formulation after cryo-processing (observation)
Type: physicochemical
Settings: 8 cycles
Protocol: Fish oil was cured to a film with the use of heat.
It was processed in a Spex Certiprep cryogrinder for 8 cycles, each cycle lasting 2.0 minutes and with a 2.0 minute between-cycle cool down to maintain the system at cryogenic temperatures.

## CCCCCCCCCCCCCCCCO [Cetyl Alcohol]
Example 7: 30% in 70% fish oil 30% Vitamin E, 30 impacts per second
  consistency of resulting formulation: highly viscous and smooth

## O=C(CO)[C@@H](O)[C@H](O)[C@H](O)CO [Fructose]
Example 5: 40% in 100% fish oil, 20 impacts per second
  consistency of resulting formulation: highly viscous upon standing and was extremely shear thinning

## CO[C@H]1C[C@@H]2CC[C@@H](C)[C@@](O)(O2)C(=O)C(=O)N2CCCC[C@H]2C(=O)O[C@H]([C@H](C)C[C@@H]2CC[C@@H](O)[C@H](OC)C2)CC[C@H](C)/C=C(\C)[C@@H](O)[C@@H](OC)C(=O)[C@H](C)C[C@H](C)/C=C/C=C/C=C/1C [Rapamycin derivative]
Example 2: 31% in 70% fish oil 30% vitamin E, 20 impacts per second
  consistency of resulting formulation: highly viscous and shear thinning with small crystals evident throughout the sample
